{"source": "patent US12193465B2", "about": "“Materials and methods for extending shelf-life of foods” (JP Laboratories, Inc., priority 2021, dated 2025)", "key": {"avocado": {"system": "avocado", "assay": "Softening / rotten inside (spoiled flesh) of avocado", "from_the_text": "(§1) Most of the foods changed color or texture.\n(§2) The assembly was shaken periodically."}, "cut lilies": {"system": "cut lilies", "assay": "Keeping cut flowers longer (browning of petals)", "details": "Example 118, 0.01% solution, control <12 days", "from_the_text": "Other preservative tested with flowers include: cyclohexanone, 2-cyclohexen-1-one, 1-methyl-1-cyclopentene, 3-methoxyphenylboronic acid, 3-chlorophenylboronic acid, benzyl ether, choline chloride and hydrogen sulfide. Flowers can be exposed to very low concentration, e.g., in ppm, of vapor of the shelf-life extenders to keep them fresher longer."}, "[1]": {"assay": "Color change / browning / yellowing of foods (keeping produce green longer)", "protocol": "(§3) All studies were conducted at a room temperature of about 25° C. To determine the effectiveness of a shelf-life extender, a control sample which was untreated with any shelf-life extenders, was tested identical to the test samples. […] All studies in those Examples of Tables 1-6 were conducted in closed plastic or glass containers. Containers, such as plastic containers, without or with lids having holes can be used if it is advantageous to let excess moisture escape or to prevent condensation of moisture released by some produce.\n(§4) Food exposed to preservatives or by a sachet was placed in typically polystyrene or acrylic containers depending upon the size and number of food items. Glass jars and bottles were also used. The containers were snap-closed or with a lid. The containers were purchased mainly from Amazon or Webstaurant.com store. When needed, plastic containers with holes or without lids were used.\n(§5) For controlled exposure and a constant supply of a preservative to foods, sachets containing one or more drops of preservatives were used. Sachets were made by placing an appropriate amount of a preservative in a plastic bag containing a piece of paper and heat sealing the bag. The sachet bag materials used were Tyvek® for solid preservative, polyethylene, polyester and high barrier multilayer films were used for liquid preservatives. These bags were sealed with a heat sealer. The sachet was typically applied on one side of the container containing food.\n(§6) A piece of paper napkin was taped inside a 100 microns thick polyethylene or polyester Ziploc bag. The size of the bag varied from ˜20 cm×30 cm to ˜60 cm×90 cm depended on the sample with sandwich bags up to gallon bags being exemplary. The paper napkin was wetted with 0.1-0.5 ml of a preservative or a mixture of preservatives. A tray of aluminum, stainless steel or glass containing the foods was placed inside the plastic (polyethylene, polyester and multilayer-laminated) bag and almost closed by locking the Ziploc. Air was blown with an air blower from the unclosed end until the bag was fully blown and then quickly closed tightly by locking the remaining Ziploc. If a preservative was a sublimable solid, it was placed in a petri dish and then placed inside the bag in the tray before blowing air. The exposure time was varied from five minutes to a day depending upon the food. […] The assembly was shaken periodically. After the predetermined time, the tray containing produce was removed from the bag, allowed to de-gas for 10-30 minutes in air and the produce was then placed in an appropriately sized container. Glass and stainless steel containers with lids were also often used.\n(§7) A solution of one or more preservatives was prepared in a large (e.g., 2-10 liter) glass beaker or a jar. A sack containing the food was prepared by placing the food in a plastic mesh bag. The sack was placed in the solution of the preservative. A smaller glass beaker containing proper amount of water was place over the package to keep the sack soaked in the solution of the preservative during the treatment. The solution was stirred either with a plastic spatula or with a magnet over a magnetic stirrer. After treatment, the mesh sack was removed, the produce was washed in a tray with running water, strained and air dried at 30° C. in an air blowing oven for about 5-10 minutes, while shaking the tray or turning the food periodically followed by placing the sample in an appropriate container.\n(§8) The food was placed in mesh trays and sprayed with an aqueous solution (1-10%) of a preservative while shaking the tray or turning the food. The solution was allowed to drain from the tray and the food was air dried in an air blowing oven at 30° C. for about 5-10 minutes, while shaking the tray or turning food periodically followed by placing the sample in an appropriate container."}, "[2]": {"system": "green tomato, papaya, banana, mango, peppers, tindora", "assay": "Ripening of fruits and vegetables (delayed or expedited)", "details": "Ripening, Green tomato, 2 hrs P-E", "protocol": "as §3, §5, §6, §7\nThe untreated (control sample) and treated food were placed in proper sized plastic containers and the containers were tightly closed.\nThe following major criteria were used for determining spoilage of foods: growth of fungus, color change, unpleasant odor, wilting, firmness or shriveling, change of state (liquid to solid or vice versa), and sprouting or germination Example 10: Sources of food."}, "[3]": {"system": "grains, legumes, potatoes, garlic", "assay": "Germination / sprouting of grains, legumes and tubers", "details": "for Spoilage Time - Sample: Example 129, Sprouting, Small yellow potatoes, Sachet, 100% relative humidity, control 8 days", "from_the_text": "(§9) These bags were sealed with a heat sealer.\nas §2"}, "fungus": {"system": "fungus", "assay": "Fungus growth on treated foods stored in closed containers at room temperature", "details": "for Spoilage Time - Sample: Fungus; for Effectiveness on ginger: pre-exposure and sachet method", "from_the_text": "as §1\nGlass jars and bottles were also used. The containers were snap-closed or with a lid.\nas §9, §2"}, "[4]": {"assay": "General shelf-life extension of foods (spoilage criteria of Example 9)", "details": "for Effectiveness for controlling one or more spoilage criteria: variety of foods", "protocol": "as §3, §4, §5, §6, §7, §8"}, "[5]": {"system": "parval, methi, coriander, radish, guar", "assay": "Shriveling / wilting / dehydration / becoming wet of produce", "details": "Example 130, Wilting, Coriander, 1 hr P-E, control 11 days", "from_the_text": "as §1, §2"}, "[6]": {"assay": "Color loss of meat and fish", "details": "meat and fish", "from_the_text": "as §1, §9"}}}
{"smiles": "CC(=O)CC(C)=O", "note": "[AA, Acetylacetone]", "values": [{"measurement": "Spoilage Time - Sample", "setting": "avocado; Example 127, Rotten inside, Avocado, 1 hr P-E, control 7 days", "value": 9, "unit": "days"}, {"measurement": "Spoilage Time - Sample", "setting": "avocado; Example 127, Rotten inside, Avocado, 1 hr P-E, control 7 days, listed as acetylacetone", "value": "> 9", "unit": "days"}, {"measurement": "Spoilage Time - Sample", "setting": "avocado; Example 128, Rotten inside, Haas Avocado, 1 hr P-E, control 11 days", "value": 11, "unit": "days"}, {"measurement": "Spoilage Time - Sample", "setting": "cut lilies", "value": "12+ days"}, {"measurement": "Spoilage Time - Sample", "setting": "cut lilies; listed as acetylacetone", "value": "> 12", "unit": "days"}, {"measurement": "Spoilage Time - Sample", "setting": "[1]; Example 119, Color change, Parsley, 0.25 hr P-E, control 7 days", "value": "21+ days"}, {"measurement": "Spoilage Time - Sample", "setting": "[1]; Example 119, Color change, Parsley, 0.25 hr P-E, control 7 days, listed as acetylacetone", "value": "> 21", "unit": "days"}, {"measurement": "Spoilage Time - Sample", "setting": "[2]; Example 126, control 14 days", "value": 18, "unit": "days"}, {"measurement": "Spoilage Time - Sample", "setting": "[2]; Example 126, control 14 days, listed as acetylacetone", "value": "significantly delayed"}, {"measurement": "Spoilage Time - Sample", "setting": "[3]", "value": "48+ days"}, {"measurement": "Spoilage Time - Sample", "setting": "[3]; listed as acetylacetone", "value": "> 48", "unit": "days"}, {"measurement": "Spoilage Time - Sample", "setting": "fungus; Example 120, Farmer's cheese, 0.5 hr P-E, control 5 days", "value": 34, "unit": "days"}, {"measurement": "Spoilage Time - Sample", "setting": "fungus; Example 120, Farmer's cheese, 0.5 hr P-E, control 5 days, listed as Acetylacetone", "value": "delayed the growth of fungus"}, {"measurement": "Spoilage Time - Sample", "setting": "fungus; Example 122, Raw milk Ricotta cheese, Sachet, control 3 days", "value": 35, "unit": "days"}, {"measurement": "Spoilage Time - Sample", "setting": "fungus; Example 123, Raspberry, 1 hr P-E, control 5 days", "value": 31, "unit": "days"}, {"measurement": "Spoilage Time - Sample", "setting": "fungus; Example 124, Yellow pearl onions, Sachet, control 24 days", "value": 48, "unit": "days"}, {"measurement": "Effectiveness on ginger", "setting": "fungus", "value": "found effective"}, {"measurement": "Fungus growth", "setting": "fungus; strawberries, raspberries, blackberries and lychee", "value": "either prevented or significantly delayed"}, {"measurement": "Shelf-life of flowery vegetables", "setting": "[4]", "value": "extended shelf-life"}, {"measurement": "Effectiveness for controlling one or more spoilage criteria", "setting": "[4]", "value": "effective to a greater or lesser extent"}, {"measurement": "Spoilage Time - Sample", "setting": "[5]", "value": "21+ days"}, {"measurement": "Spoilage Time - Sample", "setting": "[5]; listed as acetylacetone", "value": "> 21", "unit": "days"}]}
{"smiles": "O=C1CCCCC1", "note": "[CY, Cyclohexanone]", "values": [{"measurement": "Spoilage Time - Sample", "setting": "avocado; Example 107, Softening, Florida avocado, 2 hrs P-E, control 2 days", "value": 2, "unit": "days"}, {"measurement": "Spoilage Time - Sample", "setting": "avocado; Example 108, Softening, Avocado, 2 hrs P-E, control 2 days", "value": 2, "unit": "days"}, {"measurement": "Spoiling of the flesh with development of fungus", "setting": "avocado; avocados, Examples 77, 78, 107, 108, 113 & 171", "value": "significantly delayed"}, {"measurement": "Spoilage Time - Sample", "setting": "[1]; Example 92, Browning, Coriander, Sachet, control 11 days", "value": "11+ days"}, {"measurement": "Spoilage Time - Sample", "setting": "[1]; Example 92, Browning, Coriander, Sachet, control 11 days, listed as cyclohexanone", "value": "significantly delayed"}, {"measurement": "Spoilage Time - Sample", "setting": "[2]; Example 106, control 10 days", "value": 18, "unit": "days"}, {"measurement": "Effectiveness at extending the shelf-life of potatoes", "setting": "[3]; potatoes", "value": "effective"}, {"measurement": "Spoilage Time - Sample", "setting": "fungus; Example 93, Raspberry, Sachet, control 5 days", "value": 9, "unit": "days"}, {"measurement": "Spoilage Time - Sample", "setting": "fungus; Example 95, Blueberry, Sachet, control 5 days", "value": 67, "unit": "days"}, {"measurement": "Spoilage Time - Sample", "setting": "fungus; Example 96, Farmer's cheese, 0.5 hr P-E, control 5 days", "value": 34, "unit": "days"}, {"measurement": "Spoilage Time - Sample", "setting": "fungus; Example 96, Farmer's cheese, 0.5 hr P-E, control 5 days, listed as cyclohexanone", "value": "delayed the growth of fungus"}, {"measurement": "Spoilage Time - Sample", "setting": "fungus; Example 98, Lychee, Sachet, control 3 days", "value": 31, "unit": "days"}, {"measurement": "Spoilage Time - Sample", "setting": "fungus; Example 99, Cheesecake, Sachet, control 6 days", "value": "8+ days"}, {"measurement": "Spoilage Time - Sample", "setting": "fungus; Example 100, Puri, 16 hrs P-E, control 5 days", "value": "70+ days"}, {"measurement": "Spoilage Time - Sample", "setting": "fungus; Example 101, Rotala, 16 hrs P-E, control 5 days", "value": "70+ days"}, {"measurement": "Spoilage Time - Sample", "setting": "fungus; Example 102, Monterey cheese, Sachet, control 7 days", "value": "10+ days"}, {"measurement": "Spoilage Time - Sample", "setting": "fungus; Example 102, Monterey cheese, Sachet, control 7 days, listed as cyclohexanone", "value": "either prevented or significantly delayed"}, {"measurement": "Fungus growth", "setting": "fungus; Indian millet bread, Indian wheat bread (roti), cheesecake, sachet or pre-exposure to vapors", "value": "either prevented or significantly delayed"}, {"measurement": "Effectiveness on ginger", "setting": "fungus", "value": "found effective"}, {"measurement": "Improvements with meat and fish", "setting": "[6]", "value": "demonstrated improvements"}, {"measurement": "Shelf-life of flowery vegetables", "setting": "[4]", "value": "extended shelf-life"}, {"measurement": "Shelf-life of shelled and unshelled peanuts", "setting": "[4]; peanuts", "value": "extended"}, {"measurement": "Effectiveness as shelf-life extender", "setting": "[4]; tofu", "value": "effective"}, {"measurement": "Effectiveness for controlling one or more spoilage criteria", "setting": "[4]", "value": "effective to a greater or lesser extent"}]}
